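1) Cells in 96-well plates. 2) Compound, 48 h, 5 concentrations. 3) Linear interpolation between surrounding doses. 4) Unreached endpoint = highest concentration. Here, GI50 denotes the concentration required for 50% inhibition of growth. At the TGI there is no net growth.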
How the values were obtained:
Experiment in all cases: DTP human tumour cell line panel, 48 h; in the data active = GI50 below about 0.43 µM; inactive = the rest
[1] = system: HOP-62 NSCLC
[2] = system: SF-295 CNS
[3] = system: SN12C renal
[4] = system: CCRF-CEM leukemia
[5] = system: MALME-3M melanoma
[6] = system: UO-31 renal
[7] = system: LOX IMVI melanoma
[8] = system: OVCAR-4 ovarian
[9] = system: SNB-75 CNS
[10] = system: SNB-78 CNS
[11] = system: HL-60(TB) leukemia
[12] = system: A498 renal
[13] = system: KM20L2 colon
[14] = system: COLO 205 colon
[15] = system: UACC-62 melanoma
[16] = system: HOP-18 NSCLC
[17] = system: HCC-2998 colon
[18] = system: OVCAR-3 ovarian
[19] = system: DLD-1 colon
[20] = system: NCI-H522 lung
[21] = system: HCT-116 colon
[22] = system: IGROV1 ovarian
[23] = system: SK-MEL-2 melanoma
[24] = system: NCI-H23 lung
[25] = system: SK-MEL-28 melanoma
[26] = system: TK-10 renal
[27] = system: DMS 114 small cell lung
[28] = system: HOP-92 NSCLC
[29] = system: K-562 leukemia
[30] = system: KM12 colon
[31] = system: RPMI-8226 leukemia
[32] = system: M19-MEL melanoma
[33] = system: SK-MEL-5 melanoma
[34] = system: M14 melanoma
[35] = system: EKVX NSCLC
[36] = system: 786-0 renal
[37] = system: RXF-631 renal
[38] = system: U251 CNS
[39] = system: SK-OV-3 ovarian
[40] = system: OVCAR-8 ovarian
[41] = system: SNB-19 CNS
[42] = system: SR leukemia
[43] = system: UACC-257 melanoma
[44] = system: SW-620 colon
[45] = system: ACHN renal
[46] = system: NCI-H226 lung
[47] = system: CAKI-1 renal
[48] = system: HCT-15 colon
[49] = system: A549 NSCLC
[50] = system: NCI-H460 lung
[51] = system: SF-268 CNS
[52] = system: RXF 393 renal
[53] = system: MOLT-4 leukemia
[54] = system: DMS 273 small cell lung
[55] = system: HT29 colon
[56] = system: SF-539 CNS
[57] = system: LXFL 529 NSCLC
[58] = system: XF 498 CNS

Cc1ccc(C(=O)/C=C/c2cccc([N+](=O)[O-])c2)cc1
> 64 µM: TGI [48]
> 89.9 µM: TGI [4]
7.39 µM: TGI [53]
> 62.1 µM: TGI [30]
> 92.9 µM: TGI [9]
> 62.3 µM: TGI [32]
> 80.9 µM: TGI [27]
43.7 µM: TGI [44]
51.1 µM: TGI [42]
> 55.5 µM: TGI [38]
> 55.9 µM: TGI [14]
> 92 µM: TGI [17]
31.8 µM: TGI [21]
> 74.8 µM: TGI [52]
> 85.8 µM: TGI [11] | TGI [19]
> 66.1 µM: TGI [55]
> 62.9 µM: TGI [36]
> 100 µM: TGI [1] | TGI [2] | TGI [3] | TGI [5] | TGI [6] | TGI [7] | TGI [8] | TGI [10] | TGI [12] | TGI [13] | TGI [15] | TGI [16] | TGI [18] | TGI [20] | TGI [22] | TGI [23] | TGI [24] | TGI [25] | TGI [26] | TGI [28] | TGI [33] | TGI [34] | TGI [35] | TGI [37] | TGI [39] | TGI [40] | TGI [41] | TGI [43] | TGI [45] | TGI [46] | TGI [47] | TGI [49] | TGI [50] | TGI [51] | TGI [54] | TGI [56] | TGI [57]
66.5 µM: TGI [29]
> 78.8 µM: TGI [31]

O=c1cc(-c2ccco2)[nH]c2cc3c(cc12)OCO3
82.4 µM: TGI [58]
> 100 µM: TGI [2] | TGI [3] | TGI [4] | TGI [5] | TGI [6] | TGI [7] | TGI [8] | TGI [11] | TGI [12] | TGI [15] | TGI [17] | TGI [18] | TGI [19] | TGI [21] | TGI [22] | TGI [23] | TGI [24] | TGI [25] | TGI [26] | TGI [27] | TGI [29] | TGI [31] | TGI [32] | TGI [33] | TGI [35] | TGI [36] | TGI [37] | TGI [38] | TGI [41] | TGI [42] | TGI [43] | TGI [44] | TGI [45] | TGI [46] | TGI [48] | TGI [49] | TGI [50] | TGI [51] | TGI [53] | TGI [54] | TGI [55] | TGI [57]
75.5 µM: TGI [56]
92.8 µM: TGI [52]
56.5 µM: TGI [9]
43.8 µM: TGI [1]
78.5 µM: TGI [14]
66.8 µM: TGI [13]
inactive: GI50 [2] 28.1 µM | GI50 [13] 21.2 µM | GI50 [18] 42.9 µM | GI50 [21] 39.9 µM | GI50 [27] 37.2 µM | GI50 [33] 13.4 µM | GI50 [46] 24.4 µM | GI50 [51] 42.1 µM | GI50 [52] 24.9 µM

From PubChem BioAssay (NCI)
